Among the test systems are HT-29; SK-MEL-28; TK-10; SK-MEL-5; SNB-75; NCI-H23; CCRF-CEM; SF-539; KM12; UACC-62; HCT-116; UO-31; NCI-H460; OVCAR-4; OVCAR-5; OVCAR-8; SR.
What all share (experiment): growth of human tumour cells (NCI), 48 h

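How tested: cells in 96-well plates exposed to compound for 48 hours at five concentrations. GI50 is the concentration that inhibits growth by half.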 Activity calls are given as the source filed them. No stated cut-off is given here; in the data, active = GI50 up to about 1.1 µM and inactive = higher.

For the compound `Cc1cccc(C)c1NC(=O)C(=O)CC(=O)c1cccc([N+](=O)[O-])c1`, the GI50 in the assay on HT-29, in the assay with SK-MEL-28, in the assay with TK-10, in the assay with SK-MEL-5, with SNB-75 and with NCI-H23 was > 100 µM (inactive) throughout. Moreover, the GI50 with CCRF-CEM, in the assay on SF-539, in the assay on KM12, with UACC-62, in the assay with HCT-116 and in the assay on UO-31 was > 100 µM (inactive) each time. For the same compound, the GI50 in the assay with NCI-H460, in the assay on OVCAR-4, in the assay on OVCAR-5, in the assay with OVCAR-8 and in the assay with SR was > 100 µM (inactive) in each case.

With `Cc1ccc(S(=O)(=O)c2ccc(NC(=O)SCCC(=O)O)cc2)cc1`, the GI50 is > 100 µM (inactive) in the assay with HT-29; > 100 µM (inactive) in the assay with SK-MEL-28; > 100 µM (inactive) with TK-10; 17.8 µM (inactive) in the assay with SNB-75; > 100 µM (inactive) in the assay on NCI-H23; > 100 µM (inactive) in the assay with CCRF-CEM. Further, the GI50 with SF-539, in the assay on KM12, in the assay with UACC-62, in the assay on HCT-116, in the assay with UO-31 and in the assay on NCI-H460 was > 100 µM (inactive) throughout. For the same compound, the GI50 in the assay with OVCAR-4, in the assay on OVCAR-5, with OVCAR-8 and in the assay on SR was > 100 µM (inactive) each time.

As for `Cc1ccc(C)c(NC(=O)CCc2nnc(S)[nH]2)c1`, the GI50 in the assay with HT-29, with SK-MEL-28, in the assay with TK-10, in the assay on SK-MEL-5, in the assay on SNB-75 and with NCI-H23 was > 100 µM (inactive) each time. Besides, the GI50 is > 100 µM (inactive) with CCRF-CEM; > 100 µM (inactive) with SF-539; > 100 µM (inactive) in the assay on KM12; > 100 µM (inactive) in the assay with UACC-62; 69.2 µM (inactive) with HCT-116; > 100 µM (inactive) in the assay on UO-31. Further, the GI50 with NCI-H460 was > 100 µM (inactive); with OVCAR-4, > 100 µM (inactive); in the assay on OVCAR-5 it was > 100 µM (inactive); with OVCAR-8, > 100 µM (inactive); with SR, 6.43 µM (inactive).

Consider `N#C/C(=C\c1cc2ccccc2c2ccccc12)c1ccccc1`, for which the GI50 with HT-29 was 4.45 µM (inactive); with SK-MEL-28, 24 µM (inactive); with TK-10, > 29.7 µM (inactive); in the assay on SK-MEL-5 it was 5.38 µM (inactive); in the assay with SNB-75 it was 2.31 µM (inactive); in the assay on NCI-H23 it was > 30.5 µM (inactive). Moreover, the GI50 in the assay on CCRF-CEM was 3.59 µM (inactive); in the assay on SF-539 it was 6.15 µM (inactive); with KM12 it was 5.98 µM (inactive); with UACC-62, 3.75 µM (inactive); with HCT-116, 5.3 µM (inactive); in the assay on UO-31, 22.2 µM (inactive). The GI50 is 4.67 µM (inactive) in the assay on NCI-H460; 11.2 µM (inactive) with OVCAR-4; 45.4 µM (inactive) with OVCAR-5; 30 µM (inactive) with OVCAR-8; 2.9 µM (inactive) with SR.

Regarding `COC1=C(Br)C(=O)c2nc(C)ccc2C1=O`, the GI50 with HT-29 was 19.4 µM (inactive); in the assay with SK-MEL-28, 18.4 µM (inactive); in the assay with TK-10 it was 18.4 µM (inactive); with SK-MEL-5, 18.1 µM (inactive); in the assay on SNB-75, 19.2 µM (inactive); in the assay with NCI-H23, 12.7 µM (inactive). Further, the GI50 was 0.871 µM (active) in the assay on CCRF-CEM; 21.5 µM (inactive) in the assay on SF-539; 17.7 µM (inactive) in the assay on KM12; 19 µM (inactive) with UACC-62; 8.18 µM (inactive) in the assay with HCT-116; 18.5 µM (inactive) in the assay on UO-31. The GI50 is 15.8 µM (inactive) in the assay with NCI-H460; 13.3 µM (inactive) with OVCAR-4; 20.4 µM (inactive) with OVCAR-5; 6.73 µM (inactive) with OVCAR-8; 3.56 µM (inactive) in the assay on SR.

`CC(Oc1ccc2c(=O)cc(-c3ccccc3)oc2c1)C(=O)O` (stereo not given): the GI50 in the assay on HT-29, with SK-MEL-28, in the assay on TK-10, in the assay on SK-MEL-5, in the assay on SNB-75 and in the assay with NCI-H23 was > 100 µM (inactive) each time. Also, the GI50 in the assay on CCRF-CEM, in the assay with SF-539, with KM12, in the assay with UACC-62, in the assay with HCT-116 and with UO-31 was > 100 µM (inactive) in each case. For the same compound, the GI50 in the assay on NCI-H460, with OVCAR-4, with OVCAR-8 and with SR was > 100 µM (inactive) each time.

Regarding `CSc1nc(-c2ccccc2)nc(N2CCOCC2)[s+]1`, the GI50 was 53.1 µM (inactive) in the assay on HT-29; > 100 µM (inactive) with SK-MEL-28; > 100 µM (inactive) in the assay with TK-10; > 100 µM (inactive) with SK-MEL-5; > 100 µM (inactive) in the assay on SNB-75; > 100 µM (inactive) in the assay with NCI-H23. Further, the GI50 with CCRF-CEM was 22.3 µM (inactive); in the assay on SF-539, > 100 µM (inactive); in the assay with KM12 it was > 100 µM (inactive); in the assay with UACC-62, 28.6 µM (inactive); in the assay with HCT-116, > 100 µM (inactive); in the assay with UO-31, > 100 µM (inactive). Further, the GI50 in the assay on NCI-H460 was 39 µM (inactive); in the assay on OVCAR-4, > 100 µM (inactive); with OVCAR-5, > 100 µM (inactive); with OVCAR-8, > 100 µM (inactive); in the assay on SR, 16.6 µM (inactive).

Consider `CC(=O)Nc1ccc(-c2nnc(SCC(=O)Nc3ccc(C)cc3)o2)cc1`, for which the GI50 was 17 µM (inactive) in the assay on HT-29; 16.1 µM (inactive) in the assay with SK-MEL-28; 27.8 µM (inactive) in the assay with TK-10; 14.7 µM (inactive) in the assay with SK-MEL-5; 16.4 µM (inactive) in the assay on SNB-75; 15.7 µM (inactive) in the assay on NCI-H23. Moreover, the GI50 in the assay with CCRF-CEM was 24.3 µM (inactive); with SF-539 it was 13.5 µM (inactive); with KM12, 19.1 µM (inactive); in the assay with UACC-62, 16.9 µM (inactive); in the assay with HCT-116 it was 15.7 µM (inactive); in the assay on UO-31, 47.6 µM (inactive). The GI50 was 23.2 µM (inactive) in the assay on NCI-H460; 17.7 µM (inactive) in the assay on OVCAR-4; 19.6 µM (inactive) with OVCAR-5; 27.7 µM (inactive) with OVCAR-8; 28 µM (inactive) with SR.

Turning to `Cc1ns/c(=N\C(=S)N(C)C)n1C`, the GI50 with HT-29, with SK-MEL-28, in the assay on TK-10, with SK-MEL-5, in the assay on SNB-75 and with NCI-H23 was > 100 µM (inactive) in each case. Also, the GI50 with CCRF-CEM, in the assay with SF-539, in the assay on KM12, with UACC-62, in the assay on HCT-116 and in the assay on UO-31 was > 100 µM (inactive) each time. For the same compound, the GI50 with NCI-H460, with OVCAR-4, in the assay on OVCAR-5, in the assay with OVCAR-8 and with SR was > 100 µM (inactive) throughout.

Regarding `CC(=O)C1=C(C)Cn2c(=O)c3ccccc3c(=O)n2C1`, the GI50 in the assay on HT-29, in the assay with SK-MEL-28, in the assay on TK-10, in the assay on SK-MEL-5, in the assay on SNB-75 and in the assay with NCI-H23 was > 100 µM (inactive) in each case. The GI50 with CCRF-CEM, with SF-539, in the assay with KM12, in the assay with HCT-116, with UO-31 and in the assay on NCI-H460 was > 100 µM (inactive) throughout. The GI50 with OVCAR-4, with OVCAR-5, in the assay on OVCAR-8 and in the assay on SR was > 100 µM (inactive) throughout.

As for `COc1cc(C2C(C(=O)Nc3ccc([N+](=O)[O-])cc3)=C(C)NC(C)=C2C(=O)Nc2ccc([N+](=O)[O-])cc2)ccc1O`, the GI50 in the assay on HT-29 is 19.4 µM (inactive); with SK-MEL-28 it was 4.16 µM (inactive); in the assay on TK-10, 18.2 µM (inactive); with SK-MEL-5, 31.8 µM (inactive); in the assay with SNB-75, 30.5 µM (inactive); in the assay with NCI-H23 it was 26.7 µM (inactive). Moreover, the GI50 is 30.3 µM (inactive) with CCRF-CEM; 20.9 µM (inactive) with SF-539; 18.7 µM (inactive) with KM12; 16.7 µM (inactive) with UACC-62; 16 µM (inactive) in the assay with HCT-116; 19.1 µM (inactive) in the assay on UO-31. In addition, the GI50 was 23.3 µM (inactive) in the assay on NCI-H460; 27 µM (inactive) with OVCAR-4; 35.6 µM (inactive) with OVCAR-5; 19.9 µM (inactive) with OVCAR-8; 5.07 µM (inactive) in the assay with SR.

As to `CC(=O)N1C/C(=C\c2ccc(N(C)C)cc2)C(=O)/C(=C/c2ccc(N(C)C)cc2)C1`, the GI50 in the assay with HT-29 was 36.6 µM (inactive); in the assay with SK-MEL-28 it was > 100 µM (inactive); with TK-10 it was 75.7 µM (inactive); in the assay with SK-MEL-5 it was 54.2 µM (inactive); in the assay with SNB-75 it was 17.2 µM (inactive); in the assay on NCI-H23, > 100 µM (inactive). For the same compound, the GI50 in the assay with CCRF-CEM is 46.9 µM (inactive); in the assay with SF-539, 27.1 µM (inactive); in the assay with KM12, 35.7 µM (inactive); in the assay on UACC-62, 30.1 µM (inactive); with HCT-116 it was 40.6 µM (inactive); with UO-31, > 100 µM (inactive). Also, the GI50 was > 100 µM (inactive) with OVCAR-4, > 100 µM (inactive) in the assay with OVCAR-5, 84.1 µM (inactive) in the assay with OVCAR-8 and 35.6 µM (inactive) in the assay on SR.
